Experiments:
[1] = Absorption study by means of the biopharmaceutics classification system (BCS); assay type: in vitro ADME
Procedure: It was possible to show in an absorption study by means of the biopharmaceutics classification system (BCS) that α-hederin is to be attributed with a moderate absorption (10-90%). […] Absorption studies were carried out on rats for this purpose.

[2] = Absorption studies on rats: α-hederin plasma concentration after i.v. or oral administration of ivy leaf extracts; assay type: in vivo; settings: all samples after i.v. or p.o. administration of extract A or B
Description: The influence of administration of two different extracts on the plasma concentration of α-hederin was subsequently investigated. The change in the plasma concentration of α-hederin with a single administration compared with multiple administration of the extract and with different blood sampling times after administration was also investigated, as was the α-hederin absorption rate. Two extracts whose saponin distribution is shown in Table 1 below were selected for this purpose:
For intravenous administration, the required amount of extract was dissolved in 11% (m/m) ethanol, filtered and injected. It was aimed to administer a volume of 2 ml of extract solution (dose in each case [mg/kg of bodyweight]: 25). A blood sample was taken from the animals 5 minutes after the administration. About 2 ml of whole blood with added EDTA for anticoagulation were required for each sample.
Suspensions of the extracts in glycerol were prepared for oral administration. The animals were gavaged with about 2 ml of these suspensions (dose in each case [mg/kg of bodyweight]: 1000 and 166.66). 2 ml of blood were taken from each of the animals 1 and 3 hours after the last administration in each case.
The total saponin content takes account of the molar masses of the two constituents and is based on α-hederin. The total saponin content in extract A in this case was 9.8%, based on α-hederin. […]

smooth muscles = assay: Spasmolytic activity / relaxation of smooth muscles; settings: via binding to β-adrenergic receptors; recent studies by the applicant

Row | permeation through the membranes ([1]; same conditions as BCS absorption study) | Hederacoside C in plasma samples [2] | absorption (BCS) ([1]; biopharmaceutics classification system, moderate absorption) | SMILES | relaxation of smooth muscles (smooth muscles)
1 | did not permeate through the membranes | not detectable |  | C[C@@H]1O[C@@H](O[C@H]2[C@H](O[C@H]3CC[C@@]4(C)[C@@H](CC[C@]5(C)[C@@H]4CC=C4[C@@H]6CC(C)(C)CC[C@]6(C(=O)O[C@@H]6O[C@H](CO[C@@H]7O[C@H](CO)[C@@H](O[C@@H]8O[C@@H](C)[C@H](O)[C@@H](O)[C@H]8O)[C@H](O)[C@H]7O)[C@@H](O)[C@H](O)[C@H]6O)CC[C@]45C)[C@]3(C)CO)OC[C@H](O)[C@@H]2O)[C@H](O)[C@H](O)[C@H]1O [hederacoside C] | 
2 |  |  | 10-90% | C[C@@H]1O[C@@H](O[C@H]2[C@H](O[C@H]3CC[C@@]4(C)[C@@H](CC[C@]5(C)[C@@H]4CC=C4[C@@H]6CC(C)(C)CC[C@]6(C(=O)O)CC[C@]45C)[C@]3(C)CO)OC[C@H](O)[C@@H]2O)[C@H](O)[C@H](O)[C@H]1O [α-hederin] | causes relaxation of smooth muscles

Reference: patent publication US7943184B2, “Process for preparing an extract from ivy leaves” (Engelhard Arzneimittel GmbH & Co. KG, priority 2003, dated 2011)
